In patent publication US10793590B2, “Antifungal compounds” (President and Fellow of Harvard College, priority 2016, dated 2020):
Converted amounts (≈) assume the structure as drawn.

Tests used:
Candida albicans = assay: Liquid broth minimum inhibitory concentration; format: cell-based; details: YPD media, 30° C., OD600 at 14 h, 1% DMSO, read-out: MIC against Candida albicans
Experimental: (§1) Determination of minimum inhibitory concentration: Fresh DMSO solutions of selvarmicin and nystatin were prepared as serial dilutions and dispensed into clear flat-bottom 96-well plates in four replicates. A starting inoculum of the appropriate test strain in media was added to each well to yield a final concentration of 1% DMSO by volume. The plates were incubated at 30° C. with shaking at 200 rpm. Growth was assayed by OD600 readings taken on a M5 plate reader (Molecular Devices). For E. coli, B. subtilis, and M. luteus, the starting inoculum consisted of an overnight culture in LB diluted into LB media at 10 μL/mL and final OD readings were taken at 22 h. For C. albicans and S. cerevisiae, the starting inoculum consisted of an overnight culture in YPD media diluted to an OD600 of 0.05 in YPD media and final OD readings were taken at 14 h. For T. harzianum and A. fumigatus, the starting inoculum consisted of a stock of concentrated conidia diluted into potato dextrose broth at 2 uL/mL and final OD readings were taken at 22 h. Using Prism (GraphPad), the OD data were normalized and fit to a Gompertz function, from which MIC values were extracted.
(§2) Selvamicin's improved solubility, despite its lack of charged carboxylate and ammonium groups, is probably contributed by its second sugar moiety.

Solubility determination = format: physicochemical; details: HEPES buffer, aqueous buffer, thermodynamic from solid; 5 mM HEPES pH 7.4, 22° C., UV-vis absorbance
Experimental: Solubility determination: Solubility for selvamicin and nystatin was measured with minor modifications from a previously reported protocol. 1 Briefly, in microcentrifuge tubes, 20 μL […] HEPES (pH=7.4) was added to 2.5 mg of selvamicin and of nystatin and the resulting suspensions were vortexed vigorously for 30 min at 22° C. The tubes were centrifuged, the resulting supernatants were diluted in HEPES buffer, and concentrations were determined by UV-vis absorbance (306 nm for nystatin and 335 nm for selvamicin).

B. subtilis = assay: Liquid broth activity testing against bacteria; format: cell-based; details: LB media, OD at 22 h
Experimental: as §1, §2

E. coli = assay: Liquid broth activity testing against bacteria; format: cell-based; details: LB media, OD at 22 h
Experimental: as §1, §2

M. luteus = assay: Liquid broth activity testing against bacteria; format: cell-based; details: LB media, OD at 22 h
Experimental: as §1, §2

[1] = Isothermal calorimetry sterol binding assay; details: 150 μM polyene, POPC LUVs with 11 mol % ergosterol, 25° C.
Experimental: Isothermal Calorimetry Sterol Binding Assay:
Large unilamellar vesicle (LUV) preparation: In a glass vial, a 25 mg/mL solution of palmitoyl oleoyl phosphatidylcholine (POPC) in chloroform (0.96 mL, Avanti Polar Lipids) was mixed with a freshly prepared 4 mg/mL solution of the appropriate sterol (ergosterol or cholesterol. Aldrich) in chloroform (0.35 mL). The sterol solution was omitted for preparation of sterol-free POPC LUVs. The resulting solution was evaporated to dryness in vacuo to yield a lipid film, which was placed under high vacuum for at least 5 h. To this film was added 1 mL 5 mM HEPES (pH adjusted to 7.4 with KOH) and the resulting suspension was vortexed for 3 min. This lipid suspension was loaded into a syringe and passed through a 0.1 μM filter (Whatman) 21 times using an Avanti Polar Lipids Mini-Extruder to yield an LUN suspension (32 mM POPC, 11 mol % sterol; assumed no loss during extrusion).
Isothermal calorimetry (ITC) experiments: Solutions of polyene (150 μM selvamicin or nystatin) in 1% DMSO/5 mM HEPES (pH=7.4) were prepared by dilution from a 1.5 mM solution in DMSO. 8 mM POPC LUV suspensions in 1% DMSO/5 mM HEPES (pH=7.4) were prepared by dilution of the above LUV suspensions with HEPES buffer and DMSO. […]

Candida albicans K1 = assay: Neutropenic mouse disseminated candidiasis model (Example 8); format: in vivo; details: 80 mg/kg single intraperitoneal dose 2 h after infection, read 8 h after therapy
Experimental: (§3) Selvamicin was tested in the neutropenic mouse disseminated candidiasis model. Briefly, mice were infected with an inoculum of 5.70 log 10 cfu/ml of Candida albicans K1. Two hours after infection, the mice were administered either saline or selvamicin at 80 mg/kg via the intraperitoneal route. Eight hours after therapy, the burden of Candida albicans in mouse kidneys was measured by viable plate counts of organ homogenates.

[2] = Animal toxicity in neutropenic mouse disseminated candidiasis model (Example 8); format: in vivo; details: 80 mg/kg intraperitoneal, neutropenic mice
Experimental: as §3

C. albicans = assay: Neutropenic mouse disseminated candidiasis model (Example 9); format: in vivo; details: 20 mg/kg or 80 mg/kg intraperitoneal
Experimental: (§4) Selvamicin was tested in the neutropenic mouse disseminated candidiasis model. Mice were infected with an inoculum of C. albicans, C. glabrata, and C. auris. After infection, the mice were administered either saline or selvaimicin at 20 mg/kg or 80 mg/kg via an intraperitoneal route. After therapy, the burden of Candida albicans in mouse kidneys was measured by viable plate counts of organ homogenates.

C. auris = assay: as above; format: in vivo; details: 20 mg/kg or 80 mg/kg intraperitoneal
Experimental: as §4

C. glabrata = assay: as above; format: in vivo; details: 20 mg/kg or 80 mg/kg intraperitoneal
Experimental: as §4

SMILES | MIC (Candida albicans) [µM] | solubility at 30 min (Solubility determination) [µM] | Activity against Gram-positive bacteria (B. subtilis) (B. subtilis) | Activity against Gram-negative bacteria (E. coli) (E. coli) | Activity against Gram-positive bacteria (M. luteus) (M. luteus) | Binding to ergosterol-containing vesicles (ITC, heats evolved) [1] | Efficacy: burden of Candida albicans in mouse kidneys (Candida albicans K1) | Animal toxicity [2] | Efficacy in preventing C. albicans growth (kidney burden) (C. albicans) | Efficacy in preventing C. auris growth (kidney burden) (C. auris) | Efficacy in preventing C. glabrata growth (kidney burden) (C. glabrata)
C[C@@H]1[C@H](O)[C@@H](C)/C=C/C=C/CC/C=C/C=C/C=C/C=C/[C@H](O[C@H]2O[C@H](C)[C@@H](O)[C@H](N)[C@@H]2O)C[C@@H]2O[C@](O)(C[C@@H](O)[C@H](O)CC[C@@H](O)C[C@@H](O)C[C@@H](O)CC(=O)O[C@H]1C)C[C@H](O)[C@H]2C(=O)O [nystatin A1, reference compound] | 1 (≈ 0.926 µg/mL) | 300 (≈ 278 µg/mL) | – | – | – | – | – | – | – | – | –
CCC1OC(=O)CC[C@@H](O)[C@H](O)C[C@H](O)C[C@]2(O)C[C@H](O)[C@](C)(O)C(CC(O[C@@H]3O[C@H](C)[C@@H](O)[C@H](O)[C@@H]3O)/C=C/C=C/C=C/C=C/C=C/C(C)C(O[C@H]3C[C@@H](O)[C@@H](OC)[C@H](C)O3)C1C)O2 (stereo partly shown) [Selvamicin] | 23 (≈ 21.4 µg/mL) | 2300 (≈ 2140 µg/mL) | No activity was detected | No activity was detected | No activity was detected | no evidence for binding | demonstrated efficacy in preventing Candida albicans growth | No animal toxicity was apparent | demonstrated efficacy | demonstrated efficacy | demonstrated efficacy
